Experimental data as given in ChEMBL document CHEMBL3045031, “Study on synthesis of thalidomide analogues and their bioactivities; inhibition on iNOS pathway and cytotoxic effects” (Med Chem Res, 2012).

Columns and labels:
[1] = Cytotoxicity against Homo sapiens (human) HONE1 cells after 24 hr by MTT assay; format: functional, cell-based; conditions: HONE1, 24 h
[2] = tested on: HEp-2; assay: Cytotoxicity against Homo sapiens (human) Hep2 cells after 24 hr by MTT assay; format: functional, cell-based; conditions: HEp-2, 24 h
[3] = tested on: HL-60; assay: Cytotoxicity against Homo sapiens (human) HL60 cells after 24 hr by MTT assay; format: functional, cell-based; conditions: HL-60, 24 h
[4] = target: T1, Nitric oxide synthase, inducible (Mus musculus) (UniProt P29477); assay: Inhibition of iNOS in Mus musculus (mouse) RAW 264.7 cells assessed as inhibition of LPS-induced nitrite production pretreated for 24 hr before stimulation with LPS measured after 18 hr by […]; parameters: concentration or dose not given beside the values; conditions: concentration not given here
T1 sequence (whole entry): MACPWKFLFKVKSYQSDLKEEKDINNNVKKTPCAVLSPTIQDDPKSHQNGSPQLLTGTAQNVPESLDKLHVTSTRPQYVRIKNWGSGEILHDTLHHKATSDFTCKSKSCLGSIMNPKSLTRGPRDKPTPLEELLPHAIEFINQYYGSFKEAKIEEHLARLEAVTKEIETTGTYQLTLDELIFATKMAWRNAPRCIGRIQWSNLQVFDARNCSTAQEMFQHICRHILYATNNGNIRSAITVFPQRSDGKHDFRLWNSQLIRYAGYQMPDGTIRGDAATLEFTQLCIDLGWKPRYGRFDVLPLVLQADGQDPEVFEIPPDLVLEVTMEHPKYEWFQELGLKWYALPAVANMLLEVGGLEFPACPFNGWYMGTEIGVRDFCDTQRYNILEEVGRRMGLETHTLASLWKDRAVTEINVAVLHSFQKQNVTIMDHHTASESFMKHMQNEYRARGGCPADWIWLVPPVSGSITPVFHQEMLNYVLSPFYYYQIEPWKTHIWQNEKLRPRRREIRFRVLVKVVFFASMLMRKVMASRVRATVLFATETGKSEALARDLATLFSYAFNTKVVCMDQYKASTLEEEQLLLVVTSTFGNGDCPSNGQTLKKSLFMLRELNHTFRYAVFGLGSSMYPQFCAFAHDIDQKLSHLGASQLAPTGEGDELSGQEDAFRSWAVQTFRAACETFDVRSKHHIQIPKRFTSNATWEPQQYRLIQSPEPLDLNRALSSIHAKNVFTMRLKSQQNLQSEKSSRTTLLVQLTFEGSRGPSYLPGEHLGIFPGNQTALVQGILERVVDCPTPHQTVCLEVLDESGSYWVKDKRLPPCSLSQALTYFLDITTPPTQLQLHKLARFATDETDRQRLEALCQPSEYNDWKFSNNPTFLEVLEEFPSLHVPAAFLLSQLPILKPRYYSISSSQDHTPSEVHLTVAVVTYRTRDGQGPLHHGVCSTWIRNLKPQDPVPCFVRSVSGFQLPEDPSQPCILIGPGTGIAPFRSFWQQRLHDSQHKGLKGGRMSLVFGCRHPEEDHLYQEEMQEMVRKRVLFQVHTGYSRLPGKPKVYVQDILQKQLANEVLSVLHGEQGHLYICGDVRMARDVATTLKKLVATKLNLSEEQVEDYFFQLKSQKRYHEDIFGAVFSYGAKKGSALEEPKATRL

[5] = tested on: NUGC; assay: Cytotoxicity against Homo sapiens (human) NUGC cells after 24 hr by MTT assay; format: functional, cell-based

Row | inhibition [4] [%] | Structure (SMILES) | IC50 [1] [µM] | IC50 [2] [µM] | IC50 [3] [µM] | IC50 [5] [µM]
1 | 82 | O=C1C2C3C=CC(CC3)C2C(=O)N1c1ccccc1 (stereo unspecified) | > 200 | 41.2 | 118 | 
2 | 77.9 | O=C1C2C3C=CC(CC3)C2C(=O)N1c1ncc(Cl)cc1Cl (stereo unspecified) | > 200 | > 200 | 139 | 
3 | 75.5 | Nc1ccccc1CN1C(=O)C2C3C=CC(CC3)C2C1=O (stereo unspecified) | > 200 |  | > 200 | > 200
4 | 81.4 | Nc1cccc(N2C(=O)c3cccc4cccc(c34)C2=O)c1 | > 200 | 147 | > 200 | > 200
5 | 72.8 | CC1=C(C)C(=O)N(Cc2ccccc2N)C1=O | > 200 |  | 139 | > 200
6 | 68.4 | Nc1cccc(N2C(=O)C3C4C=CC(CC4)C3C2=O)c1 (stereo unspecified) | > 200 | 53.4 | 64.1 | 
7 | 90.6 | O=C1c2ccccc2C(=O)N1c1cccc([N+](=O)[O-])c1 |  | 179 | 174 | > 200
8 | 90.6 | Nc1ccc(N2C(=O)c3cccc4cccc(c34)C2=O)cc1 | > 200 | 43.9 | > 200 | > 200
9 | 71.5 | O=C1c2ccccc2C(=O)N1c1ccc(Cl)cc1 |  | 178 | > 200 | > 200
10 | 91.9 | Cc1ccc2c(c1)C(=O)N(c1ccc(/N=N\c3ccccc3)cc1)C2=O | > 200 | 104 | 59.5 | > 200
11 | 67.6 | O=C1c2ccccc2C(=O)N1c1ccccn1 | 156 | 65.8 | > 200 | > 200
12 | 84.6 | O=C1c2ccccc2C(=O)N1c1ccc(-c2ccccc2)cc1 | > 200 | 40.4 | 119 | > 200
13 | 87.9 | Nc1ccc(N2C(=O)[C@@H]3C4C=CC(CC4)[C@@H]3C2=O)cc1 |  | > 200 | 166 | 
14 | 94.5 | O=C1c2ccccc2C(=O)N1c1ccc(S)cc1 | > 200 | > 200 | > 200 | > 200
15 | 81.4 | Nc1ccc(CN2C(=O)c3ccccc3C2=O)cc1 | > 200 |  | > 200 | > 200
16 | 67.6 | O=C1c2cccc3cccc(c23)C(=O)N1c1ccccc1 | > 200 | 44.2 | > 200 | > 200
17 | 76.9 | Nc1ccccc1N1C(=O)C2C3C=CC(CC3)C2C1=O (stereo unspecified) | > 200 | 32.5 | 67.6 | > 200

Row | inhibition [4] [%] | Structure (SMILES) | IC50 [1] [µM] | IC50 [2] [µM] | IC50 [3] [µM] | IC50 [5] [µM]
18 | 84.6 | COc1ccc(N2C(=O)C3C4C=CC(CC4)C3C2=O)cc1 (stereo unspecified) |  | > 200 | > 200 | > 200
19 | 89.2 | O=C1c2ccccc2C(=O)N1c1ccccc1 [N-PHENYL-PHTHALIMIDE] |  | > 200 | > 200 | > 200
20 | 56.6 | O=C1C2C3C=CC(CC3)C2C(=O)N1c1ccc(Br)cn1 (stereo unspecified) |  | 150 | > 200 | > 200
21 | 94.5 | O=C1c2ccccc2C(=O)N1c1ccc(Cl)cn1 | > 200 | 56.7 | 67.2 | > 200
22 | 98.4 | Cc1ccc2c(c1)C(=O)N(Cc1ccccc1N)C2=O | > 200 |  | > 200 | > 200
23 | 68.4 | N#Cc1ccc(N2C(=O)[C@@H]3C4C=CC(CC4)[C@@H]3C2=O)cc1 | > 200 |  |  | 
24 | 86.6 | O=C1C2C3C=CC(CC3)C2C(=O)N1c1ccc(-c2ccccc2)cc1 (stereo unspecified) |  | 46.3 | 104 | > 200
25 | 85.3 | O=C1c2ccccc2C(=O)N1c1ccccc1N1C(=O)c2ccccc2C1=O | > 200 | 56.8 | > 200 | > 200
26 | 70.9 | Cc1ccc2c(c1)C(=O)N(c1ccc(-c3ccccc3)cc1)C2=O | > 200 | 104 | 59.5 | 
27 | 87.3 | COc1ccc(N2C(=O)c3ccccc3C2=O)cc1 | > 200 | > 200 | > 200 | > 200
28 | 87.9 | O=C1C2C3C=CC(CC3)C2C(=O)N1c1ccc(S)cc1 (stereo unspecified) |  |  |  | 
29 | 91.9 | Nc1cccc(CN2C(=O)c3ccccc3C2=O)c1 | > 200 |  | 78.1 | > 200
30 | 28.2 | O=C1CCC(N2C(=O)c3ccccc3C2=O)C(=O)N1 (stereo unspecified) |  |  |  | 
31 | 44.9 | O=C1C2C3C=CC(CC3)C2C(=O)N1c1ccc(Cl)cn1 (stereo unspecified) | > 200 | > 200 | > 200 | > 200
32 | 80.7 | Cc1cccc2c1C(=O)N(Cc1ccc(N)cc1)C2=O | > 200 |  | > 200 | > 200
33 | 80.1 | N#Cc1ccccc1N1C(=O)c2ccccc2C1=O | > 200 | > 200 | > 200 | > 200
34 | 74.8 | Cc1ccc2c(c1)C(=O)N(c1ccc([N+](=O)[O-])cn1)C2=O | > 200 | 172 | > 200 | > 200
